Assay results taken from ChEMBL document CHEMBL1926576, “Fragment based lead discovery of small molecule inhibitors for the EPHA4 receptor tyrosine kinase” (Eur J Med Chem, 2012).

Legend:
[1] = molecular target: Inhibitor of nuclear factor kappa-B kinase subunit epsilon (Homo sapiens) (UniProt Q14164); test: Inhibition of IKKepsilon assessed as residual activity at 10 uM using [33P-ATP] by radiometric filter binding assay
[2] = molecular target: Serine/threonine-protein kinase pim-2 (Homo sapiens) (UniProt Q9P1W9); test: Inhibition of PIM2 assessed as residual activity at 10 uM using [33P-ATP] by radiometric filter binding assay
Chain of Serine/threonine-protein kinase pim-2 (Homo sapiens) (Q9P1W9 whole entry, looked up): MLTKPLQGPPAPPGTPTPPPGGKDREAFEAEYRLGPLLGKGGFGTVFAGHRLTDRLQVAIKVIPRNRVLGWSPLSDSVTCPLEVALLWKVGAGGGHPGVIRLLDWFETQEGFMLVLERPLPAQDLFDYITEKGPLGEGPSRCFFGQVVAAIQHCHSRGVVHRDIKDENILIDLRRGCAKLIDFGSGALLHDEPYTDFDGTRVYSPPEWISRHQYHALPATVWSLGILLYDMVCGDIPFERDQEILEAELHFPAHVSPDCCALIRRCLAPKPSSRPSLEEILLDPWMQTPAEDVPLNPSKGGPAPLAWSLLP

[3] = molecular target: Serine/threonine-protein kinase pim-1 (Homo sapiens) (UniProt P11309); test: Inhibition of PIM1 assessed as residual activity at 10 uM using [33P-ATP] by radiometric filter binding assay
[4] = molecular target: Eukaryotic elongation factor 2 kinase (Homo sapiens) (UniProt O00418); test: Inhibition of EF2K assessed as residual activity at 10 uM using [33P-ATP] by radiometric filter binding assay
Chain of Eukaryotic elongation factor 2 kinase (Homo sapiens) (O00418 whole entry): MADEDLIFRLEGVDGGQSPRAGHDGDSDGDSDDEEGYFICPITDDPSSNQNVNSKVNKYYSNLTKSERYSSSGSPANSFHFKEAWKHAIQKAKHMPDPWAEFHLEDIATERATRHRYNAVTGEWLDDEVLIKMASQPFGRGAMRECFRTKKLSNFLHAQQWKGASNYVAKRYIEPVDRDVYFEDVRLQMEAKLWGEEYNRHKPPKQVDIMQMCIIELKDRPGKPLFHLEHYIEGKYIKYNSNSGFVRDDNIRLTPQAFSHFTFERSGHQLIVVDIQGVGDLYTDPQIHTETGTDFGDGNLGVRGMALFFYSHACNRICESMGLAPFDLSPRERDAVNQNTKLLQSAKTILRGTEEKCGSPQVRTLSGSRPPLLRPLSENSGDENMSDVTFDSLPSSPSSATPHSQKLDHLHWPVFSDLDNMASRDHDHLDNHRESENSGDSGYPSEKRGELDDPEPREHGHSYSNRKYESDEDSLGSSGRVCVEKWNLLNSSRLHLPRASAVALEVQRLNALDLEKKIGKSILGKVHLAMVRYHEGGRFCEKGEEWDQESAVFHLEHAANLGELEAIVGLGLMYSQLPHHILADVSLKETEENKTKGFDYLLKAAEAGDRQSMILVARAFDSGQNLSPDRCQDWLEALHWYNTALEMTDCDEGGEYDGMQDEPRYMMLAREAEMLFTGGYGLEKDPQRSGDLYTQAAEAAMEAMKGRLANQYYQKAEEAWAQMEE

[5] = molecular target: Serine/threonine-protein kinase PAK 5 (Homo sapiens) (UniProt Q9P286); test: Inhibition of PAK5 assessed as residual activity at 10 uM using [33P-ATP] by radiometric filter binding assay
[6] = molecular target: Inhibitor of nuclear factor kappa-B kinase subunit beta (Homo sapiens) (UniProt O14920); test: Inhibition of IKK-beta assessed as residual activity at 10 uM using [33P-ATP] by radiometric filter binding assay
Chain of Inhibitor of nuclear factor kappa-B kinase subunit beta (Homo sapiens) (O14920 whole entry): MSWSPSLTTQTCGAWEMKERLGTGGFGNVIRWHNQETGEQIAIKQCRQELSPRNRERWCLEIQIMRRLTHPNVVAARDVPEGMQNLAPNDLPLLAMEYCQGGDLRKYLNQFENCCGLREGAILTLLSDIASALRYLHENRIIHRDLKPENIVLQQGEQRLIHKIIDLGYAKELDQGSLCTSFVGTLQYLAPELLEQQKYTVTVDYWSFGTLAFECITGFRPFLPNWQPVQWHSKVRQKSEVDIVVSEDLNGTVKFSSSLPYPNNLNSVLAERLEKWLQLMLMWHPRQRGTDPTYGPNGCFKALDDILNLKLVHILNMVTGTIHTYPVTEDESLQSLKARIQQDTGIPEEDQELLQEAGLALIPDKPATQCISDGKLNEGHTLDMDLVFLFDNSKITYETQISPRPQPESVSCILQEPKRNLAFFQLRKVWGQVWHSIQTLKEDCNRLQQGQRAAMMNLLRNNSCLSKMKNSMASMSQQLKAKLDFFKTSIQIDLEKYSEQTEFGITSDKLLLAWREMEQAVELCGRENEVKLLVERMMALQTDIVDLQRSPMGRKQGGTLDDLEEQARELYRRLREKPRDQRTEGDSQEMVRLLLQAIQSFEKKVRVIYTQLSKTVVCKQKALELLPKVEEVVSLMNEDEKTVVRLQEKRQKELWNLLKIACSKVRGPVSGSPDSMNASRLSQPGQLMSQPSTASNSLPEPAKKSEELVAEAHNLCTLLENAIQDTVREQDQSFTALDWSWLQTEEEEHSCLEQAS

[7] = molecular target: Mitogen-activated protein kinase 8 (Homo sapiens) (UniProt P45983); test: Inhibition of JNK1 assessed as residual activity at 10 uM using [33P-ATP] by radiometric filter binding assay
[8] = molecular target: Angiopoietin-1 receptor (Homo sapiens) (UniProt Q02763); test: Inhibition of TIE2 assessed as residual activity at 10 uM using [33P-ATP] by radiometric filter binding assay
[9] = molecular target: Serine/threonine-protein kinase 16 (Homo sapiens) (UniProt O75716); test: Inhibition of MPSK1 assessed as residual activity at 10 uM using [33P-ATP] by radiometric filter binding assay
[10] = molecular target: Dual specificity mitogen-activated protein kinase kinase 2 (Homo sapiens) (UniProt P36507); test: Inhibition of MKK2 assessed as residual activity at 10 uM using [33P-ATP] by radiometric filter binding assay
[11] = molecular target: Misshapen-like kinase 1 (Homo sapiens) (UniProt Q8N4C8); test: Inhibition of MINK1 assessed as residual activity at 10 uM using [33P-ATP] by radiometric filter binding assay
Chain of Misshapen-like kinase 1 (Homo sapiens) (Q8N4C8 whole entry, looked up): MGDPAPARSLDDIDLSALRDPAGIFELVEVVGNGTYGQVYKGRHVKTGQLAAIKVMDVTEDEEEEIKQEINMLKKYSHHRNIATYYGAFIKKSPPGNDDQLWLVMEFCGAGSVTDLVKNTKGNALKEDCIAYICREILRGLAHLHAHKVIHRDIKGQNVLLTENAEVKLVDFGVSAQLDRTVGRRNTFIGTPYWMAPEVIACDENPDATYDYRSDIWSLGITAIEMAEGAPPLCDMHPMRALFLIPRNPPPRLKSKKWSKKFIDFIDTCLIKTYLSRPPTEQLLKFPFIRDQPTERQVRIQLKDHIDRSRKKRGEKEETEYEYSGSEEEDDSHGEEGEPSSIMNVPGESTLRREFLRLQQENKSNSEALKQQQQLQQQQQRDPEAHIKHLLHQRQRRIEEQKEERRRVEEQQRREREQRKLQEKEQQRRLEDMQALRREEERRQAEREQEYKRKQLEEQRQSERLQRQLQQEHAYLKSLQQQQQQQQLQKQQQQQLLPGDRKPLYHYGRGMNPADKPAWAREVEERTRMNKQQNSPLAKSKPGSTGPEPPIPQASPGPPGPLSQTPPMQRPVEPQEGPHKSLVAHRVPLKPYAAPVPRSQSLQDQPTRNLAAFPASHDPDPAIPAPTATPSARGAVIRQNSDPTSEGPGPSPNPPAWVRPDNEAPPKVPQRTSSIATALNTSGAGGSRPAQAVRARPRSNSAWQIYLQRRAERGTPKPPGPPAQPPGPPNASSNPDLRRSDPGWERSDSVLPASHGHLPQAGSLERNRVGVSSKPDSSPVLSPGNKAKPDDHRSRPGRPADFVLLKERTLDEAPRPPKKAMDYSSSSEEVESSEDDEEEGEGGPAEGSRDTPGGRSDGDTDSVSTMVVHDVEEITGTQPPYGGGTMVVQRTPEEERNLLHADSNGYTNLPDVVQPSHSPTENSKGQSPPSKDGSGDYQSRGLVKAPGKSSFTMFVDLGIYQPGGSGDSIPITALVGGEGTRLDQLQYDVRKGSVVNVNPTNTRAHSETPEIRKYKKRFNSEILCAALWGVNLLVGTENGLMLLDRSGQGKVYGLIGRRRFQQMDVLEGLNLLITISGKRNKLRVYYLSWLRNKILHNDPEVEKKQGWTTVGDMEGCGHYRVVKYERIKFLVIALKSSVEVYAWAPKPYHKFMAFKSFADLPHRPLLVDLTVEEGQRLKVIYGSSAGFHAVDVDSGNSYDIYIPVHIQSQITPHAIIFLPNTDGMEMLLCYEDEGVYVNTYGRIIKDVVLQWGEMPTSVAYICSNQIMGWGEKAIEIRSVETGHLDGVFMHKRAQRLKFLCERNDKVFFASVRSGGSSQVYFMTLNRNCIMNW

[12] = molecular target: Calcium/calmodulin-dependent protein kinase type 1 (Homo sapiens) (UniProt Q14012); test: Inhibition of CAMK1 assessed as residual activity at 10 uM using [33P-ATP] by radiometric filter binding assay
[13] = molecular target: Mitogen-activated protein kinase 12 (Homo sapiens) (UniProt P53778); test: Inhibition of p38-gamma MAPK assessed as residual activity at 10 uM using [33P-ATP] by radiometric filter binding assay
Chain of Mitogen-activated protein kinase 12 (Homo sapiens) (P53778 whole entry): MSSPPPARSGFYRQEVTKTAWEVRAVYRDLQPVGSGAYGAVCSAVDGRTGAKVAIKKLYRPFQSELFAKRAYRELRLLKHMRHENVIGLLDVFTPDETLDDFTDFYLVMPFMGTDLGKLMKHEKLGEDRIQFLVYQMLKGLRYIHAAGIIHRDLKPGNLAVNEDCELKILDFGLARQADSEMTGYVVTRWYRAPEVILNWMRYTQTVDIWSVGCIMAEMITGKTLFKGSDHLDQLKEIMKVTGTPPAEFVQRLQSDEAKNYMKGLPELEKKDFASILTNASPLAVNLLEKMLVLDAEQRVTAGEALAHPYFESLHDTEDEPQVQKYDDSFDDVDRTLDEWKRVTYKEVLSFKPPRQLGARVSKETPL

[14] = molecular target: Mitogen-activated protein kinase kinase kinase 1 (Homo sapiens) (UniProt Q13233); test: Inhibition of MEKK1 assessed as residual activity at 10 uM using [33P-ATP] by radiometric filter binding assay
[15] = molecular target: Maternal embryonic leucine zipper kinase (Homo sapiens) (UniProt Q14680); test: Inhibition of MELK assessed as residual activity at 10 uM using [33P-ATP] by radiometric filter binding assay
Chain of Maternal embryonic leucine zipper kinase (Homo sapiens) (Q14680 whole entry, looked up): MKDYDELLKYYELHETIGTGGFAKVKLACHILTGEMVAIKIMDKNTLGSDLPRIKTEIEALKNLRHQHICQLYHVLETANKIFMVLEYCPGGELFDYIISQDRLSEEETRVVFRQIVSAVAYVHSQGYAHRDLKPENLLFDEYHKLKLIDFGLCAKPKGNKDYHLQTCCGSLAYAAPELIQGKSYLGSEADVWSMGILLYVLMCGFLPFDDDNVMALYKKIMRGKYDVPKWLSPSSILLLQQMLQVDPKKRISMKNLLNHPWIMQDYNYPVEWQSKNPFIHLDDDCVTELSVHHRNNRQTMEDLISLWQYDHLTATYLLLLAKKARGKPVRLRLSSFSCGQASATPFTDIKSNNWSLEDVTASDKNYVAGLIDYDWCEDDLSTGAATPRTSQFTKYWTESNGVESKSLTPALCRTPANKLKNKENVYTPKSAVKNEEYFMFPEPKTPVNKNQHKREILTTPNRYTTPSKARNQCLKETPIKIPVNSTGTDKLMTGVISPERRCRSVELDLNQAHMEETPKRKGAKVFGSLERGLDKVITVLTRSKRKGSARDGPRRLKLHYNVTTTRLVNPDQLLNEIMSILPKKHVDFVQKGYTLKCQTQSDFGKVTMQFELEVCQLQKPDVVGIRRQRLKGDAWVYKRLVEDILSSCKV

[16] = molecular target: Proto-oncogene tyrosine-protein kinase Src (Homo sapiens) (UniProt P12931); test: Inhibition of Src assessed as residual activity at 10 uM using [33P-ATP] by radiometric filter binding assay
[17] = molecular target: Dual specificity tyrosine-phosphorylation-regulated kinase 2 (Homo sapiens) (UniProt Q92630); test: Inhibition of DYRK2 assessed as residual activity at 10 uM using [33P-ATP] by radiometric filter binding assay
[18] = molecular target: Dual specificity protein kinase CLK2 (Homo sapiens) (UniProt P49760); test: Inhibition of CLK2 assessed as residual activity at 10 uM using [33P-ATP] by radiometric filter binding assay
[19] = molecular target: Tyrosine-protein kinase ZAP-70 (Homo sapiens) (UniProt P43403); test: Inhibition of ZAP70 assessed as residual activity at 10 uM using [33P-ATP] by radiometric filter binding assay
[20] = molecular target: Tyrosine-protein kinase BTK (Homo sapiens) (UniProt Q06187); test: Inhibition of BTK assessed as residual activity at 10 uM using [33P-ATP] by radiometric filter binding assay
[21] = molecular target: Serine/threonine-protein kinase Nek2 (Homo sapiens) (UniProt P51955); test: Inhibition of NEK2alpha assessed as residual activity at 10 uM using [33P-ATP] by radiometric filter binding assay
[22] = molecular target: Serine/threonine-protein kinase N2 (Homo sapiens) (UniProt Q16513); test: Inhibition of PRK2 assessed as residual activity at 10 uM using [33P-ATP] by radiometric filter binding assay
[23] = Inhibition of AMPK assessed as residual activity at 10 uM using [33P-ATP] by radiometric filter binding assay
[24] = molecular target: Serine/threonine-protein kinase MARK2 (Homo sapiens) (UniProt Q7KZI7); test: Inhibition of MARK2 assessed as residual activity at 10 uM using [33P-ATP] by radiometric filter binding assay
[25] = molecular target: Serine/threonine-protein kinase Chk1 (Homo sapiens) (UniProt O14757); test: Inhibition of CHK1 assessed as residual activity at 10 uM using [33P-ATP] by radiometric filter binding assay
[26] = molecular target: Fibroblast growth factor receptor 1 (Homo sapiens) (UniProt P11362); test: Inhibition of FGF-R1 assessed as residual activity at 10 uM using [33P-ATP] by radiometric filter binding assay
[27] = molecular target: Mitogen-activated protein kinase 10 (Homo sapiens) (UniProt P53779); test: Inhibition of JNK3 assessed as residual activity at 10 uM using [33P-ATP] by radiometric filter binding assay
[28] = molecular target: Ephrin type-B receptor 1 (Homo sapiens) (UniProt P54762); test: Inhibition of EPHB1 assessed as residual activity at 10 uM using [33P-ATP] by radiometric filter binding assay
[29] = molecular target: Serine/threonine-protein kinase BRSK1 (Homo sapiens) (UniProt Q8TDC3); test: Inhibition of BRSK1 assessed as residual activity at 10 uM using [33P-ATP] by radiometric filter binding assay
[30] = molecular target: Homeodomain-interacting protein kinase 1 (Homo sapiens) (UniProt Q86Z02); test: Inhibition of HIPK1 assessed as residual activity at 10 uM using [33P-ATP] by radiometric filter binding assay
[31] = molecular target: MAP kinase-interacting serine/threonine-protein kinase 2 (Homo sapiens) (UniProt Q9HBH9); test: Inhibition of MNK2 assessed as residual activity at 10 uM using [33P-ATP] by radiometric filter binding assay
[32] = molecular target: Receptor tyrosine-protein kinase erbB-4 (Homo sapiens) (UniProt Q15303); test: Inhibition of HER4 assessed as residual activity at 10 uM using [33P-ATP] by radiometric filter binding assay

Chain of Inhibitor of nuclear factor kappa-B kinase subunit epsilon (Homo sapiens) (Q14164 whole entry): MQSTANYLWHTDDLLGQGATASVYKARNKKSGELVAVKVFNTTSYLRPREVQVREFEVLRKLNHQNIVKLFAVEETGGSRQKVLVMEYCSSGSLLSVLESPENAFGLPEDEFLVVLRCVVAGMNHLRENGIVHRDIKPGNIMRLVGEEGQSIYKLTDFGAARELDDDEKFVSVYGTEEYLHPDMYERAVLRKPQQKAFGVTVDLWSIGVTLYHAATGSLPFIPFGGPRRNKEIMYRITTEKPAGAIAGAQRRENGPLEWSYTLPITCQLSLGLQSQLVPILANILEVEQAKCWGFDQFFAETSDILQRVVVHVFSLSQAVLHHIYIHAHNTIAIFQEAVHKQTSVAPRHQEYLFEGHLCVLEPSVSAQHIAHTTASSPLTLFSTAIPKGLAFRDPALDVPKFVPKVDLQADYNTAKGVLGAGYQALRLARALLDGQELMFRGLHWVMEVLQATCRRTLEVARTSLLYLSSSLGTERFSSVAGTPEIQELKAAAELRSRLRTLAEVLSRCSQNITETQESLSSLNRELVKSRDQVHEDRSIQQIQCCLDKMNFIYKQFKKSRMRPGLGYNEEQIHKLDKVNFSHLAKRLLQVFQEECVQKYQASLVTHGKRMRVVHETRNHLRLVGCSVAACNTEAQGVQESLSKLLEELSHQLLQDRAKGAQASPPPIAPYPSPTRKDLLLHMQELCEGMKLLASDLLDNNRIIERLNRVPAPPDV

Work on `Cc1ccc(F)cc1-c1nc2[nH]nc(N)c2c2c1CCCC2` yielded an Activity [1] of 96%, an Activity [2] of 100% and an Activity [3] of 76%. For the same molecule, the Activity [4] was 114%, the Activity [5] was 92% and the Activity [6] was 51%. For the same molecule, the Activity [7] was 94%, the Activity [8] was 65% and the Activity [9] was 71%. It also gave an Activity [10] of 31%, an Activity [11] of 65% and an Activity [12] of 75%. For the same molecule, the Activity [13] was 91%, the Activity [14] was 115% and the Activity [15] was 64%. For the same molecule, the Activity [16] was 25%, the Activity [17] was 101% and the Activity [18] was 45%. The Activity [19] was 107%, the Activity [20] was 30% and the Activity [21] was 91%. It also gave an Activity [22] of 89%, an Activity [23] of 86% and an Activity [24] of 78%. It also gave an Activity [25] of 100%, an Activity [26] of 55% and an Activity [27] of 72%. For the same molecule, the Activity [28] was 4%, the Activity [29] was 52% and the Activity [30] was 124%. It also gave an Activity [31] of 93% and an Activity [32] of 56%.
